Test results from patent US10881679B2, “Application of a phillyrin/phillygeninin composition in preparing a medicine or health care product for alleviating or/and treating viral diseases, and medicine or health care product for treating viral diseases” (priority 2014, dated 2021).
Marks after values point to notes of the source that are not given here.

Experiments:
[1] = system: respiratory syncytial virus (RSV); assay: Impact on virus-induced cytopathic effect in Vero cells (MTT): RSV; type: cell-based; details: RSV 100TCID50, Vero, 72 h; drug g/L as Table 1-2
parainfluenza virus [2] = type: in vivo, Kunming mice; details: 19.5 mg/kg/d i.g. 5 days
parainfluenza virus [3] = assay: Impact on virus-induced cytopathic effect in Vero cells (MTT): parainfluenza virus; type: cell-based; details: parainfluenza virus 100TCID50, Vero, 72 h; drug g/L as Table 1-2
influenza virus [4] = type: in vivo, Kunming mice; details: 19.5 mg/kg/d i.g. 5 days
Vero cells = assay: Cytotoxicity test (MTT) on Vero cells; type: cell-based, African green monkey; details: 72 h
Method: Cytotoxicity test: the drugs were diluted according to the concentrations shown in table 1-1 for determination of cytotoxicity. […] In addition, 6 wells were set up as normal control group (without drugs) while another 6 pores as blank control group (medium only). Cells were grown in a 37° C. incubator under 5% CO2. […] After 72 h, 20 μL MTT solution (5 mg·mL^−1) was added into each well to continue incubation for 4 h. The culture medium in each well was sucked and discarded, 100 μL DMSO was added to each well. Then the culture was shaken for 5 min, measured OD value at 492 nm to calculate the cell survival ratio. The cell survival ratio was analyzed using a Probit regression model in SPSS 18.0 statistical software, and the maximal nontoxic concentration (TC0) and median toxic concentration (TC50) of drugs against Vero cells were calculated.

parainfluenza virus [5] = type: in vivo, Kunming mice; details: 19.5 mg/kg/d i.g. 5 days; remark: listed apart in the source
enterovirus EV71 = assay: Impact on virus-induced cytopathic effect in Vero cells (MTT): EV71; type: cell-based; details: EV71 100TCID50, Vero, 72 h; drug g/L as Table 1-2
[6] = system: Herpes zoster simplex viruses type I (HSV-I); assay: Impact on virus-induced cytopathic effect in Vero cells (MTT): HSV-I; type: cell-based; details: HSV-I 100TCID50, Vero, 72 h; drug g/L as Table 1-2
[7] = system: Coxsackie virus B3 (CVB3); assay: Impact on virus-induced cytopathic effect in Vero cells (MTT): CVB3; type: cell-based; details: CVB3 100TCID50, Vero, 72 h; drug g/L as Table 1-2
influenza virus [8] = type: in vivo, Kunming mice; details: 19.5 mg/kg/d i.g. 5 days; remark: listed apart in the source
influenza virus [9] = assay: Impact on virus-induced cytopathic effect in Vero cells (MTT): influenza virus; type: cell-based; details: influenza virus 100TCID50, Vero, 72 h; drug g/L (Table 1-2): phillyrin 0.01, Phillygeninin 0.02, compositions A, B 0.01, Ribavirin 0.70, oseltamivir phosphate 0.30
adenovirus (ADV) = assay: Impact on virus-induced cytopathic effect in Vero cells (MTT): ADV; type: cell-based; details: ADV 100TCID50, Vero, 72 h; drug g/L as Table 1-2
[10] = system: Coxsackievirus A16 (CoxA16); assay: Impact on virus-induced cytopathic effect in Vero cells (MTT): CoxA16; type: cell-based; details: CoxA16 100TCID50, Vero, 72 h; drug g/L as Table 1-2

Compound: CCOC(=O)C1=C[C@@H](OC(CC)CC)[C@H](NC(C)=O)[C@@H](N)C1 [oseltamivir phosphate]
- antiviral effective rate (ER %) [1]: 37.60%
- Hemagglutination titer (InX) (parainfluenza virus [2]): 22.05
- Inhibition rate (%) of hemagglutination titer (parainfluenza virus [2]): 33.40%
- antiviral effective rate (ER %) (parainfluenza virus [3]): 94.52** %
- Hemagglutination titer (InX) (influenza virus [4]): 20.50 ± 1.123
- Inhibition rate (%) of hemagglutination titer (influenza virus [4]): 36.73%
- half toxic concentration (TC50) (Vero cells): 832 µg/mL
- maximal non-toxic concentration (TC0) (Vero cells): 0.28 g/L
- Lung index (parainfluenza virus [5]): 1.243 ± 0.054
- Lung index inhibition rate (parainfluenza virus [5]): 21.85
- antiviral effective rate (ER %) (enterovirus EV71): 51.86%
- antiviral effective rate (ER %) [6]: 66.56** %
- antiviral effective rate (ER %) [7]: 1.64%
- Lung index (influenza virus [8]): 1.178 ± 0.066
- Lung index inhibition rate (influenza virus [8]): 19.84
- antiviral effective rate (ER %) (influenza virus [9]): 81.76** %
- antiviral effective rate (ER %) (adenovirus (ADV)): 10.31%
- antiviral effective rate (ER %) [10]: 2.95%
